Test results published in article PMC8546421, “Molecular modelling of the FOXO4-TP53 interaction to design senolytic peptides for the elimination of senescent cancer cells” (EBioMedicine, 2021).
Where no end group is shown, it is not given here.

Legend:
[1] = test system: senescent A375 human melanoma cells; experiment: Orthotopic xenograft of senescent luciferase A375 cells in mouse ears; type: in vivo; conditions: NSG mouse ears, local injection 50 µL of 5 mg/mL once daily for two days, imaged 24 hours after second treatment; ANOVA p<0.01
Description: Mice were aged between 3-8 months and 20-30 g in weight and were housed in specific pathogen free cages. Animals were randomly distributed among treatment groups by assigning mice within the same cage to different treatment regimens. To minimise confounders, mouse treatment order was randomised within each cage. Male and female mice were distributed between all treatment groups since the chemicals used were directly injected and are not metabolized. Researchers were not blinded to the group allocation, but all attempts were made to analyse the data without knowing treatment conditions. NOD.Cg-Prkdcscid Il2rgtm1Wjl/SzJ (NSG) were purchased from The Jackson Laboratory (IMSR Cat# JAX:005557, RRID:IMSR_JAX:005557). NOD.Cg-KitW-41J Tyr + Prkdcscid Il2rgtm1Wjl/ThomJ (NBSGW) were purchased from The Jackson Laboratory (IMSR Cat# JAX:026622, RRID:IMSR_JAX:026622). Immunocompromised mice used for these experiments were all in the NSG background; however, some mice were F1 generation of NSG x NBSGW, thus the brown coat colour as NBSGW mice have tyrosinase. Xenografts containing senescent cells were established by injecting A375-Luc/iRFP human melanoma cells which contained a luciferase expressing gene into immunocompromised NSG ears. Senescence was induced in the cells via doxorubicin treatment (40 nM) then resuspended in DMEM prior to injection. Each ear was then injected with 50 µL containing approximately 1,000,000 cells. The ears were treated once daily for two days with 50 µL of either 5 mg/mL peptide, or saline. To control for confounders, each mouse contained one ear treated with saline (control). For imaging, mice were injected with 3 mg luciferin intravenously and imaged before and after treatment. Transgenic mice (BrafCA, PtenloxP, Tyr::CreERT2) were purchased from The Jackson Laboratory (IMSR Cat# JAX:013590, RRID:IMSR_JAX:013590). These mice were maintained on a C57Bl6 background and all experimental mice contained Tyr::CreER with either Braf^CA/+, Pten^fx/+; Braf^CA/CA, Pten^fx/+, or Braf^CA/+, Pten^fx/fx. […] Hypopigmented melanomas sporadically formed over the next 3-5 months, typically on the back of the mouse. These melanomas were then directly injected with 100 µL of either 20 mg/mL ES2+10%DMSO, saline+10%DMSO, saline+10%Dabrafenib, or 20 mg/mL ES2+10%Dabrafenib. The researchers were not blinded to the experiment, but each mouse contained an internal control and all imaging was done with the same exposure times based upon control tissue. For survival analyses, either 750,000 or 25,000 A375-Luc/iRFP cells were injected intradermally into NSG mice. Different combinations of drugs were locally injected to the region once daily for two days with 50 µL of either 5 mg/mL ES2, 10%Dabrafenib, or 5mg/mL ES2+10%Dabrafenib. Dabrafenib was made at 100 mg/mL in DMSO. Mice were then monitored daily and allowed to age until a humane endpoint was reached according to our IACUC protocol, which in this case was tumours of 2 cm in size. Aged C57Bl6 male mice were purchased from the Jackson Laboratory (IMSR Car# JAX:000664, RRID:IMSR_JAX:000664) at 72 weeks of age and were started on the experiment at 82 weeks. Mice were treated with 3 mg of ES2 via tail vein injection weekly for three weeks and weighed weekly. Blood was drawn prior to beginning experiments and at the endpoint. To generate plasma, blood was centrifuged at 1,500g for 10 minutes, then 2,500g for 10 minutes, then frozen for later analyses. […]

DLD1 and SW480 cells = experiment: ES2 viability (MTS) in TP53 mutant colorectal cancer cell lines; type: cell-based, human; conditions: DLD1 (S241F heterozygous), SW480 (R273H, P309S)
Procedure: Cell lines were treated with chemotherapy, doxorubicin (Sigma, Cat. No. 2252) to induce senescence (200 nM for HCT116, 100 nM for B16-F10 and MCF7, 50 nM for SW480 and DLD-1, 40 nM for A375-Luc/iRFP and MCF10a). MCF7 cells were treated with CDK4/6 inhibitor, palbociclib (Selleck Chemicals: S1116) to induce senescence (5 µM). A375 cells were treated with Braf inhibitor, Dabrafenib (Selleck Chemicals: S2807), to induce senescence (10 µM). Peptide efficacy experiments were performed by seeding 10,000 – 20,000 cells in a 96-well plate. The cells were given doxorubicin twice to make the cells senescent. After removal of doxorubicin, the plate was treated with varying concentrations of peptide. The peptide was replenished daily for two days. Cellular proliferation was quantified using the Promega CellTiter 96™ AQueous One Solution Cell Proliferation Assay (MTS) after 2 hours according to the manufacturer's protocol (Promega, G3581). To control for the charge of ES2, ProteoJuice (Millipore Sigma, 71281) was used to deliver ES2 using the manufacturers protocol, except 50 µL of 2 mM ES2 was mixed with 25 µL of ProteoJuice. Varying concentrations of the mixture were administered to A375 cells along with a control of only ProteoJuice.

[2] = test system: Braf/Pten sporadic melanomas; experiment: TUNEL staining of melanomas in transgenic mice; type: in vivo, mouse; conditions: intratumoural injection daily over two days; single agents vs saline
Procedure: Fixed frozen sections of melanomas were stained with the Click-IT Plus TUNEL assay (ThermoFisher C10618) according to the manufacturer's protocol. Stained sections were imaged with a Zeiss A2 upright microscope at either 20x or 10x. At least one of each treatment group were stained and imaged at the same time. All sections from each staining group were set to the same exposure time for TUNEL and DAPI. Any normalization of background levels was performed in Adobe Photoshop and set to the same scale for the entire image and for all other images.

“PRKGGRRRRAWGRRRRRRRRRRRRRRAPRKRLTLA [ES2]” was tested, and the “luciferase signal compared to E1 and saline” value [1] was “statistically significantly reduced luciferase signal”, the “cell death in senescent TP53 mutant cells” value (DLD1 and SW480 cells) was “effective at inducing cell death in senescent cells” and the “effect on apoptosis (TUNEL), in words” value [2] was “no difference”.
